Values joined by “and” are separate entries in the source; they are usually repeats but may differ in a detail not shown here. Identical values can stand only once.
What was measured:
[1] = test system: pancreatic ductal adenocarcinoma tumours; test: Dynamic FAZA-PET imaging with two-tissue compartment model analysis in patients with pancreatic ductal adenocarcinoma; format: in vivo, human (patients)
Source text: In an example experiment, the pharmacokinetics of FAZA in twenty patients with pancreatic ductal adenocarcinoma (PDAC) were modeled, applying principles of diffusive equilibration to interpret transport data calculated from a standard two-tissue compartment model.
Data was taken from twenty patients with biopsy-confirmed pancreatic ductal adenocarcinoma and FAZA-PET scans. Dynamic PET imaging scans were acquired over one hour following injection of FAZA. The one hour time-activity curves (TAC1) were each binned into thirty-four frames: twelve ten-second frames, followed by eight thirty-second frames, followed by seven two-minute frames, followed by seven five-minute frames. Patients returned for a static PET scan at two hours. CT scans used for co-registration were taken at the beginning of the dynamic and static PET scans.
PET activity data was obtained for regions of interest (ROIs) contoured using co-registered CT images. Tumour ROIs were contoured by a radiologist using the CT scan at two hours. This was co-registered manually to the initial CT scan and the two CT ROI sets were co-registered to the dynamic and static PET scans. In order to minimize effects resulting from high liver uptake of FAZA, aorta ROIs were contoured from the same range of PET/CT slices (along the cranial-caudal axis) as the tumour ROIs. At the level of the pancreas, the aorta is between 1.5 and 2 cm in diameter; to minimize partial volume effects, ROIs in the aorta were restricted to 0.75 cm in diameter and combined so that at least twenty-five PET voxels (3.9×3.9×3.3 mm^3 each) were imaged.
Dynamic PET TACs of FAZA were analyzed using the two-tissue compartment model:
Here, the concentration of tracer in the extravascular space of an imaged region has been partitioned into an unbound, diffusing component Cd as well as a component Cb that is bound by hypoxia. CIn is the “input” function, which was taken to be the imaged tracer concentration in the aorta, as described above. As noted earlier, k1 and k2 are the vascular influx and efflux coefficients and k3 is the tracer trapping rate. The total tracer concentration in an imaged region is C(t)=vbCIn(t)+(1−vb)[Cd(t)+Cb(t)], (5) where vb is the volume fraction occupied by blood in the region of interest. The above model was fitted to both the one-hour TACs (TAC1) as well as the combined two-hour TAC (TAC2) comprising the one-hour TACs plus static scans at two hours (in part to assess co-registration errors, which should be greater for TAC2). Coefficients (vb, k1, k2, and k3) were determined by minimizing
[formula] where Cmodel(ti) are the model activity values [Eqs. (3)-(5)] and Cdata(ti) are the measured values acquired during the N discrete time frames; N=34 for TAC1 and N=35 for TAC2. […] Equation 6 can be minimized with Cmodel(ti) calculated using trapezoidal integration.
An important tissue transport quantity is the distribution volume:
It represents the volume fraction of an imaged ROI in which tracer initially fills; i.e., rapidly equilibrates in. Patlak's formula,
To account for the unexpected correlations between k3 and vd, a model (shown schematically in FIG. 23) may be used in which an imaged voxel is comprised of two tissue types: one in which tracer reaches diffusive equilibration rapidly (with concentration C^(r)), and one in which it reaches equilibrium slowly (with concentration C^(s)): Cd(t)=vsCd^(s)+(1−vs)Cd^(r)(t). (11)
The factors of 1−vs and vs here ensure detailed balance amongst the compartments. kb is the binding rate due to hypoxia and keq represents the equilibration rate in the regions of slow-equilibration. This may be on the order of (0.1→1) hr-^1 when equilibration is driven by diffusion; see Eq. (2).
To distinguish kb and Keq in k3, voxel-scale k3 values were arranged into bins based on distribution volume values. […]

[2] = in most tissue; FAZA and similarly sized molecules; cited from earlier work

mean (population-averaged) equilibration rate keq in slow-equilibrating regions ([1]; all twenty patients, standard deviation 0.29 hrs^−1 across patients): 0.44 h⁻¹ and ~0.44 ± 0.29 h⁻¹ | equilibration rate keq ([1]; patient 1, fit of voxel-scale Keq to Eq. (18)): 0.45 h⁻¹ | equilibration rate keq ([1]; patient 2, fit of voxel-scale Keq to Eq. (18)): 0.52 h⁻¹ | average distribution volume of tumour ([1]; resected tumour exhibiting abundant apical mucin (FIG. 12 right)): 0.76 | average distribution volume of tumour ([1]; resected tumour exhibiting little mucin (FIG. 12 left)): 0.92 | vascular influx rate k1, population average of tumour-scale values ([1]; twenty PDAC patients): ~0.3 min⁻¹
Structure (SMILES): O=[N+]([O-])c1nccn1[C@H]1O[C@H](CF)[C@@H](O)[C@@H]1O [FAZA, fluoroazomycinarabinoside]
diffusivity D [2]: ~10 μm^2/s

Reference: patent US11504075B2, “System, methods, and devices for calculating hypoxic fraction and equilibration rate of small molecular weight tracers using dynamic imaging” (UNIVERSITY HEALTH NETWORK, priority 2017, dated 2022)
